Patent US20250314644A1, “METHODS COMPRISING DETECTION OF ADP-HEPTOSE” (CHILDREN'S HOSPITAL MEDICAL CENTER, priority 2023, published 2025)

Tests used:
[1] = system: Dnmt3a^−/−; Alpk1^−/− HSCs; experiment: ADP-heptose treatment of low-dose irradiated chimeric mice: donor HSC number, EdU proliferation, secondary transplant; type: in vivo, mouse
Excerpt: To model pre-leukemic clonal hematopoiesis, chimeric mice were generated as aas follows. Briefly, mixture of 1×10^6 whole bone marrow cells (WBM) were obtained from Poly (I:C) treated wild-type (Dnmt3a^+/+; MxCre^+, called Dnmt3a^WT) or mutant mice (Dnmt3a^f/f; MxCre^+, called Dnmt3a^KO) or double mutant mice (Dnmt3a^f/f; MxCre^+; Alpk1^KO, called Dnmt3a^KO; Alpk1^KO) (CD45.2^+), and transplanted into low-dose (2.5 Gy) irradiated recipient mice (CD45.1^+; 6-10 weeks of age). 8 weeks post-transplant, chimeric mice were treated with either water (H2O) or DSS (2.5%) for 1 week, and allowed to recover for 1 more week on water after which flow cytometry was performed on BM. In separate experiment, chimeric mice were pre-treated with broad spectrum antibiotics (ABX) for 4 weeks, and then subjected to DSS for 1 week after which flow cytometry performed on BM. In a separate set of experiment, chimeric mice were treated with either H2O or ADP-heptose (0.5 mg/kg) for 2 weeks, and flow cytometry performed after 2 more weeks on BM. In all the experiments, secondary transplantation was performed by purifying donor HSCs (CD45.2^+Lin^−Sca-1^+c-Kit^+Flk2^−CD150^+CD48^−) and transplanting 100 HSCs with 200,000 helper WBM cells (CD45.1+) into lethally irradiated (8 Gy) recipient mice (CD45.1^+), and donor chimerism in PB examined by flow cytometry.

TIFA-TdT THP1 cells = experiment: TIFAsome formation assay; type: cell-based, human
Method: THP1-TIFA-tdTomato cells (1*10^6) were stimulated with various human plasma samples (100 μl) for 30 mins in a 37° C. water bath in final volume of 200 μl. Cells were harvested, washed with PBS+2% FBS+2 mM EDTA (MACS buffer) and fixed with 4% Paraformaldehyde (PFA, Cat no. 15710, Electron Microscopy Sciences). After fixation, cells were washed again and then resuspended in 50 μl MACS buffer. Cells were then analyzed for TIFAsome formation on an Amnis Imagestream Mk II Imaging Flow Cytometer ISX-100 (Luminex) according to the manufacturer's instructions. Downstream analysis was performed in IDEAS analysis software (Amnis). TIFAsome positive cells were identified by gating on Mean Pixel Intensity and Max Pixel Intensity for bright puncta analysis using the IDEAS Image Data Exploration and Analysis Software. A standard curve was prepared by calculating % TIFAsome positive cells using samples which were stimulated with serial increasing doses of ADP-heptose covering the concentration range of 10 to 100,000 ng/ml. […]
THP1-TIFA-tdTomato-GFP cells were suspended at 1×10^6 cells/mL and treated with either human plasma samples (50 μl) in final volume of 200 μl for 30 minutes, or the inhibitor for 1 hour to allow for entry into the cell and then stimulated with ADP-heptose for 30 minutes. […] Images were acquired using a Nikon Ni-E Upright widefield fluorescent scope and analyzed using Nikon Elements.

NF-κB in THP1 cells = experiment: NF-κB signaling (immunoblot) and THP1-Blue NF-kB SEAP reporter; type: cell-based, human
Method: (§1) Protein concentration was evaluated by bicinchoninic acid (BCA) assay (Pierce, Cat #23225). SDS sample buffer was added to the lysates and the proteins were separated by SDS-polyacrylamide gel electrophoresis, transferred to PVDF or nitrocellulose membranes (BIO-RAD, Cat #1620112), and analyzed by immunoblotting. […] Membranes were visualized using ECL Western Blotting Substrate (Pierce, #32106) or SuperSignal West Femto Substrate (Thermo Scientific, #34096), imaged on a BIO-RAD ChemiDoc Touch Imaging system and analyzed with Image lab software 6.0.1 (Biorad) or Image J (22930834).
THP1-Blue NF-kB SEAP reporter cells (Cat no. thp-nkfb, Invivogen) were grown at 20,000 cells per well (200 μl) in a 96-well plate with the indicated agonists and inhibitors for 24 hours. […] The absorbance was read at 630 nm for a final readout. For analysis, media absorbance was subtracted, experimental values were normalized to vehicle control, and triplicates were averaged.

[2] = system: MAPK signaling in Dnmt3a^−/− HSPCs; experiment: Immunoblot of MAPK signaling; type: cell-based, mouse
Method: (A) ALPK1 and TIFA mRNA expression in Dnmt3a^WT and Dnmt3a^KO HSC from the publicly available dataset GSE98191. (B) Immunoblot analysis of HSPCs from WT, Alpk1^KO, Dnmt3a^KO, and Dnmt3a^KO; Alpk1^KO mice stimulated with indicated concentrations of ADP-heptose for 30 minutes to examine MAPK signaling.
as §1

## Nc1ncnc2c1ncn2[C@@H]1O[C@H](COP(=O)(O)OP(=O)(O)O[C@@H]2O[C@H]([C@H](O)CO)[C@@H](O)[C@H](O)[C@@H]2O)[C@@H](O)[C@H]1O [ADP-heptose, ADP-D-glycero-β-D-manno-heptose]
[1]
  proliferation of HSCs in vivo (EdU): completely abrogated
[1]; ADP-heptose administration
  expansion and self-renewal in recipient mice: unable to expand nor self-renew
TIFA-TdT THP1 cells
  TIFAsome formation (discrete puncta in the cytoplasm): rapidly induce TIFAsome formation
NF-κB in THP1 cells; TIFA-deficient THP1 cells
  NF-kB activation: unable to activate NF-kB
NF-κB in THP1 cells; human leukemic cells (THP1)
  canonical NF-κB signaling and transcriptional activation: induce canonical NF-κB signaling and transcriptional activation
[2]
  MAPK signaling: did not result in MAPK signaling
